The test deals with T1, GCS (Canis lupus familiaris, UniProt A0A8I3MXG6).
T1 sequence (A0A8I3MXG6 1-394): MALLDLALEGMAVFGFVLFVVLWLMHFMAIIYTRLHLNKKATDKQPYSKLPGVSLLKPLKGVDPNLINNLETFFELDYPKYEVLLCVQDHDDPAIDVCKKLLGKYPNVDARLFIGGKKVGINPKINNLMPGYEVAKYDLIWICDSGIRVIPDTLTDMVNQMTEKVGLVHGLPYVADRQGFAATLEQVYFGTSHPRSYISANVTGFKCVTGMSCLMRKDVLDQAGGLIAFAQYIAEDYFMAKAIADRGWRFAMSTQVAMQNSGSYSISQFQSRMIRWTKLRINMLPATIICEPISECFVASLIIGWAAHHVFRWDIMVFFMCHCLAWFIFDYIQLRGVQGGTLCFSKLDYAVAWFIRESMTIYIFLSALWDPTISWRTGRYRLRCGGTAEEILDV
The test is described as follows: Assay 1: GCS Enzymatic Assay (MDCK cell lysate, C6-NBD-Ceramide, LC/MS). In kind it is biochemical, canine. The conditions noted are these: Table 2; for IC50: data without asterisk, read-out: IC50 (nM) generated from Assay 1. A digest of the protocol:
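LC/MS/MS measurement of glucosylceramide and NBD-ceramide after a 1 h, 37 °C reaction with 100 μM UDP-glucose and 10 μM C6-NBD-ceramide gave IC50s or percent inhibition.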

SMILES strings stand for the structures. Some results are limits rather than exact numbers.

Regarding `O=C(N[C@H](CN1CCCC1)[C@H](O)c1ccc(OC2CC2)c(C(F)(F)F)c1)C(=O)c1ccc(-c2ccc(F)cc2)cc1` [Example 265, N-((1R,2R)-1-(4-cyclopropoxy-3-(trifluoromethyl)phenyl)-1-hydroxy-3-(pyrrolidin-1-yl)propan-2-yl)-2-(4′-fluoro-[1,1′-biphenyl]-4-yl)-2-oxoacetamide], the “% inhibition generated from Assay 1” value (data marked by *) was “B* (the compound had a % inhibition of greater than or equal to about 3% but less than about 50%)”.
For the compound `CC(C)n1ccc2cc(-c3ccc(C(=O)C(=O)N[C@H](CN4CCCC4)[C@H](O)c4ccc(OC5CC5)c(Cl)c4)cc3)ccc21` [Example 266, N-((1R,2R)-1-(3-chloro-4-cyclopropoxyphenyl)-1-hydroxy-3-(pyrrolidin-1-yl)propan-2-yl)-2-(4-(1-isopropyl-1H-indo1-5-yl)phenyl)-2-oxoacetamide], the IC50 was under 50 nM.
For the compound `O=C(N[C@H](CN1CCCC1)[C@H](O)c1ccc2c(c1)OCCO2)C(=O)c1ccc(-c2ccc(Cl)cc2)cc1` [Example 267, 2-(4′-chloro-[1,1′-biphenyl]-4-yl)-N-((1R,2R)-1-(2,3-dihydrobenzo[b][1,4]dioxin-6-yl)-1-hydroxy-3-(pyrrolidin-1-yl)propan-2-yl)-2-oxoacetamide], the IC50 is under 50 nM.
The same measure, in the same setting: next, `O=C(N[C@H](CN1CCCC1)[C@H](O)c1ccc2c(c1F)OCCO2)C(=O)c1ccc(-c2ccc(F)cc2)cc1` [Example 268, N-((1R,2R)-1-(5-fluoro-2,3-dihydrobenzo[b][1,4]dioxin-6-yl)-1-hydroxy-3-(pyrrolidin-1-yl)propan-2-yl)-2-(4′-fluoro-[1,1′-biphenyl]-4-yl)-2-oxoacetamide]: under 50 nM; `CC(C)n1ccc2cc(-c3ccc(C(=O)C(=O)N[C@H](CN4CCCC4)[C@H](O)c4cc(F)c5c(c4)OCCO5)cc3)ccc21` [Example 269, N-((1R,2R)-1-(8-fluoro-2,3-dihydrobenzo[b][1,4]dioxin-6-yl)-1-hydroxy-3-(pyrrolidin-1-yl)propan-2-yl)-2-(4-(1-isopropyl-1H-indol-5-yl)phenyl)-2-oxoacetamide]: under 50 nM.
Take `O=C(N[C@H](CN1CCCC1)[C@H](O)c1ccc(OC2CC2)c(Cl)c1)C(=O)c1ccc(-c2ccc(Cl)cc2)cc1` [Example 270, N-((1R,2R)-1-(3-chloro-4-cyclopropoxyphenyl)-1-hydroxy-3-(pyrrolidin-1-yl)propan-2-yl)-2-(4′-chloro-[1,1′-biphenyl]-4-yl)-2-oxoacetamide]: the IC50 is under 50 nM.
Regarding `CC(C)n1cnc2cc(-c3ccc(C(=O)C(=O)N[C@H](CN4CCCC4)[C@H](O)c4ccc(OC5CC5)c(Cl)c4)cc3)ccc21` [Example 271, N-((1R,2R)-1-(3-chloro-4-cyclopropoxyphenyl)-1-hydroxy-3-(pyrrolidin-1-yl)propan-2-yl)-2-(4-(1-isopropyl-1H-benzo[d]imidazol-5-yl)phenyl)-2-oxoacetamide], the IC50 is under 50 nM.
Still for that read-out and setting: for `O=C(N[C@H](CN1CCCC1)[C@H](O)c1cc(F)c2c(c1)OCCO2)C(=O)c1ccc(-c2ccc(Cl)cc2)cc1` [Example 272, 2-(4′-chloro-[1,1′-biphenyl]-4-yl)-N-((1R,2R)-1-(8-fluoro-2,3-dihydrobenzo[b][1,4]dioxin-6-yl)-1-hydroxy-3-(pyrrolidin-1-yl)propan-2-yl)-2-oxoacetamide] the value was under 50 nM.
With `O=C(N[C@H](CN1CCCC1)[C@H](O)c1cc(F)c2c(c1)OCCO2)C(=O)c1ccc(N2CCCC2)cc1` [Example 273, N-((1R,2R)-1-(8-fluoro-2,3-dihydrobenzo[b][1,4]dioxin-6-yl)-1-hydroxy-3-(pyrrolidin-1-yl)propan-2-yl)-2-oxo-2-(4-(pyrrolidin-1-yl)phenyl)acetamide], the IC50 is under 50 nM.
Still for that read-out and setting: for `O=C(N[C@H](CN1CCCC1)[C@H](O)c1ccc(OC2CC2)c(Cl)c1)C(=O)c1ccc(-c2ccc(C(F)(F)F)cc2)cc1` [Example 274, N-((1R,2R)-1-(3-chloro-4-cyclopropoxyphenyl)-1-hydroxy-3-(pyrrolidin-1-yl)propan-2-yl)-2-oxo-2-(4′-(trifluoromethyl)-[1,1′-biphenyl]-4-yl)acetamide] the value was under 50 nM.

What is called IC50 is the concentration that gives 50% inhibition.
